The target of assay [1] is Vascular endothelial growth factor receptor 3 (Homo sapiens, UniProt P35916). Put plainly: Inhibition of VEGFR3.
Assay [2] deals with Vascular endothelial growth factor receptor 2 (Homo sapiens, UniProt P35968). Put plainly: Inhibition of VEGFR2.
Assay [3] concerns the target Vascular endothelial growth factor receptor 1 (Homo sapiens, UniProt P17948). Briefly: Inhibition of VEGFR1.
Assay [4] deals with Fibroblast growth factor receptor 1 (Homo sapiens, UniProt P11362). Put plainly: Inhibition of FGFR1.
Assay [5] deals with Fibroblast growth factor receptor 2 (Homo sapiens, UniProt P21802). Put plainly: Inhibition of FGFR2.
The next assay deals with SW-620. Briefly: Antitumor activity against human SW620 cells xenografted mouse assessed as inhibition of tumor growth at 100 mg/kg qd for 18 days. Type of assay: functional. To be noted: SW-620, 432 h, read-out: TGI. In general terms: In xenograft studies the graft and the host belong to different species.
The next assay concerns HepG2. Put plainly: Antitumor activity against human HepG2 cells xenografted mouse assessed as inhibition of tumor growth at 100 mg/kg qd for 18 days. To be noted: HepG2, 432 h, read-out: TGI. Type of assay: functional.
The next assay is filed under the species Danio rerio. Briefly: Antiangiogenic activity in zebrafish embryos assessed as inhibition of intersegmental vessel growth at 2.5 uM. Type of assay: functional, Embryo.
Another assay has as its system HUVEC. Put plainly: Antiangiogenic activity in HUVEC assessed as inhibition of tube formation at 10 uM. Type of assay: functional. To be noted: Homo sapiens.
In assay [6] the target is Platelet-derived growth factor receptor beta (Homo sapiens, UniProt P09619). Briefly: Inhibition of PDGFRbeta.
Assay [7] deals with Mast/stem cell growth factor receptor Kit (Homo sapiens, UniProt P10721). Briefly: Inhibition of c-Kit.
The target of assay [8] is RAF proto-oncogene serine/threonine-protein kinase (Homo sapiens, UniProt P04049). Briefly: Inhibition of c-Raf.
Assay [9] has as its target Tyrosine-protein kinase Lck (Homo sapiens, UniProt P06239). Briefly: Inhibition of LCK.
The test system of the next assay is Mus musculus. Put plainly: Antitumor activity against human tumor xenografted athymic mouse assessed as inhibition of tumor growth. Type of assay: functional.
Assay [10] is described as follows: Inhibition of FGFRbeta.

Chain of Vascular endothelial growth factor receptor 2 (P35968 whole entry): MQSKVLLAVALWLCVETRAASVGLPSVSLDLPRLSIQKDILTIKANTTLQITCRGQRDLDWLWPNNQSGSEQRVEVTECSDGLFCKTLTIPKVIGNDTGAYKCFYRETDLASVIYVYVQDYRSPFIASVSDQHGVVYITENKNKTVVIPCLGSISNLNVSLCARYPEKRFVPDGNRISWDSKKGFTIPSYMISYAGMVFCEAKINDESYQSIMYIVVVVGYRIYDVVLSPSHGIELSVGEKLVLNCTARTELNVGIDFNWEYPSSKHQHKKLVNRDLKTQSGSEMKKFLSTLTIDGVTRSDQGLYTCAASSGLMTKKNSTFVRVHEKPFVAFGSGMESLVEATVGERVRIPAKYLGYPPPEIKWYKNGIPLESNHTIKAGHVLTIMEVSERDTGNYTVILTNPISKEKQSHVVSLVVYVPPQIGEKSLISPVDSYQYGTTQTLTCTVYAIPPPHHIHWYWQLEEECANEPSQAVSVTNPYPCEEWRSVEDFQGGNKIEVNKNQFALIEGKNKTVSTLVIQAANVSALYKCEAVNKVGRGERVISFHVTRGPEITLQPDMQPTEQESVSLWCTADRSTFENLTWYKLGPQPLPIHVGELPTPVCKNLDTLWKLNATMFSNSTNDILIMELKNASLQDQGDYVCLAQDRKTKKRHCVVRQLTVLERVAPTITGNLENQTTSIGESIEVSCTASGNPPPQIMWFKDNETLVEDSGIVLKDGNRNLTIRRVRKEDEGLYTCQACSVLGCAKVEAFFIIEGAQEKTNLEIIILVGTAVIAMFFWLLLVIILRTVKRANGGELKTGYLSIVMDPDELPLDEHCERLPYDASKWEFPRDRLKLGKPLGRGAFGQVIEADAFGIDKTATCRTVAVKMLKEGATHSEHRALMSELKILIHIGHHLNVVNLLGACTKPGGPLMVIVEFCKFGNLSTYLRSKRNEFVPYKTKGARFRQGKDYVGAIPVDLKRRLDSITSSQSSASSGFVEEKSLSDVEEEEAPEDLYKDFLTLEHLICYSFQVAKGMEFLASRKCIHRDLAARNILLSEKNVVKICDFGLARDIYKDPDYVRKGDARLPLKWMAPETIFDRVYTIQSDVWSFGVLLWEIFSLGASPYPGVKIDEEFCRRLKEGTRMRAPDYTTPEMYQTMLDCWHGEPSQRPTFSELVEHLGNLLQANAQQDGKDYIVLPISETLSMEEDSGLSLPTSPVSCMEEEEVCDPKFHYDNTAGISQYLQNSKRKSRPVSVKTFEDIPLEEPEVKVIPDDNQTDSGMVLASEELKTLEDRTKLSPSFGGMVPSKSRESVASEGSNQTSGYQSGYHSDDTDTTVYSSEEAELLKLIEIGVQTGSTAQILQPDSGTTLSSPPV
Chain of Vascular endothelial growth factor receptor 3 (P35916 whole entry): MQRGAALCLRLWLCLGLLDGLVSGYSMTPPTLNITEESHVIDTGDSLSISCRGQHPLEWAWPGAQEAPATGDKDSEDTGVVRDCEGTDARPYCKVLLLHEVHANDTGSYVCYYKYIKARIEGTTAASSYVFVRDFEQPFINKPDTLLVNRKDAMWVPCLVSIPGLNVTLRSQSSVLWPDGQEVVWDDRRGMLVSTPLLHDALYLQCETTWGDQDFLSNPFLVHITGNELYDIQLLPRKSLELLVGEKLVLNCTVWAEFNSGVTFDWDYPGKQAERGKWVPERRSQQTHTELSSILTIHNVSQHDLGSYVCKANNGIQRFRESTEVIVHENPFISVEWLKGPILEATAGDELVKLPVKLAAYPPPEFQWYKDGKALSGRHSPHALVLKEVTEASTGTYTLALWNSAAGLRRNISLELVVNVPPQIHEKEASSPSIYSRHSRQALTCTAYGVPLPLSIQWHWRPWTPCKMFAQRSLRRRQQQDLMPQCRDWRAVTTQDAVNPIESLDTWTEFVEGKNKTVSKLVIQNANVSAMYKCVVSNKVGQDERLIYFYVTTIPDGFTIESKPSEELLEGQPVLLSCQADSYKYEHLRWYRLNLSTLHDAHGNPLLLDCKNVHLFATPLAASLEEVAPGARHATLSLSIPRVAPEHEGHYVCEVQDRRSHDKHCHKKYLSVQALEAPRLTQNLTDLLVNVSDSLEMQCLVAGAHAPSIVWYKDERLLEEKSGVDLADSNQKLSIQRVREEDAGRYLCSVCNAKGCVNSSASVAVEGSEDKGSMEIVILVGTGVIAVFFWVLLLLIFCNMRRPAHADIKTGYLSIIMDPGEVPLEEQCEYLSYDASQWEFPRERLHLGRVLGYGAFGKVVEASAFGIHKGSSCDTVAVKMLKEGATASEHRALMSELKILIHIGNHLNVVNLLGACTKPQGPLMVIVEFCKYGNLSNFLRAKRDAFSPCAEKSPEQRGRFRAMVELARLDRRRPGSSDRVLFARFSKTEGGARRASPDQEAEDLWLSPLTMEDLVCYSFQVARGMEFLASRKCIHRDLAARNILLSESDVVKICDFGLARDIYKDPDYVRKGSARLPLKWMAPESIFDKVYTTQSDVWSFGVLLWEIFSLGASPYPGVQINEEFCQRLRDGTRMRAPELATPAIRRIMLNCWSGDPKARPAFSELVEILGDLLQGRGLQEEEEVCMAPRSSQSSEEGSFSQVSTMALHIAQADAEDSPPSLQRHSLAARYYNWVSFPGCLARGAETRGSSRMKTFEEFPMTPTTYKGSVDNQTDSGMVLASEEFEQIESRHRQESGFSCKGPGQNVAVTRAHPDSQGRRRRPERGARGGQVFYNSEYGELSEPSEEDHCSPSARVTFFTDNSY
Chain of Fibroblast growth factor receptor 2 (P21802 whole entry): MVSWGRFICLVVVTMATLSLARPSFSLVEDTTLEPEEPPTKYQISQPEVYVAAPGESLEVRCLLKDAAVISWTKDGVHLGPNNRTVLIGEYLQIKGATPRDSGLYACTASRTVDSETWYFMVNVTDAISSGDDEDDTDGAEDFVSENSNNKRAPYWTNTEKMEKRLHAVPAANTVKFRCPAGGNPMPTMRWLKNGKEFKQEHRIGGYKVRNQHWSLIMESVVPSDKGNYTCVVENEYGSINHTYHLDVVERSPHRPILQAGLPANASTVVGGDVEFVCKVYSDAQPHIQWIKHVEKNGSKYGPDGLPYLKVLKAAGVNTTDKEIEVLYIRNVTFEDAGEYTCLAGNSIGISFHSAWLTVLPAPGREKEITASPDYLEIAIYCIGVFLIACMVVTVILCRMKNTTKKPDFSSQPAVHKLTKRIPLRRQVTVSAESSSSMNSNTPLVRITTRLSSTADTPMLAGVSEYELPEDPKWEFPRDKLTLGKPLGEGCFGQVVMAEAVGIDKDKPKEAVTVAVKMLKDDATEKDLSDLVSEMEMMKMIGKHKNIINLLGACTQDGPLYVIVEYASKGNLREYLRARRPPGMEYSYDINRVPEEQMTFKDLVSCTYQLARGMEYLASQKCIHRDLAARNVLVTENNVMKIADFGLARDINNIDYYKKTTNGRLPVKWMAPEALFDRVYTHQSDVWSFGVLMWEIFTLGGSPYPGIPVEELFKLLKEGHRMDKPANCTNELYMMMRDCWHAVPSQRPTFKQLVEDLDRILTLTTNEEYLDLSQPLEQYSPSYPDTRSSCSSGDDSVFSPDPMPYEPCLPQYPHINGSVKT
Chain of Mast/stem cell growth factor receptor Kit (P10721 whole entry): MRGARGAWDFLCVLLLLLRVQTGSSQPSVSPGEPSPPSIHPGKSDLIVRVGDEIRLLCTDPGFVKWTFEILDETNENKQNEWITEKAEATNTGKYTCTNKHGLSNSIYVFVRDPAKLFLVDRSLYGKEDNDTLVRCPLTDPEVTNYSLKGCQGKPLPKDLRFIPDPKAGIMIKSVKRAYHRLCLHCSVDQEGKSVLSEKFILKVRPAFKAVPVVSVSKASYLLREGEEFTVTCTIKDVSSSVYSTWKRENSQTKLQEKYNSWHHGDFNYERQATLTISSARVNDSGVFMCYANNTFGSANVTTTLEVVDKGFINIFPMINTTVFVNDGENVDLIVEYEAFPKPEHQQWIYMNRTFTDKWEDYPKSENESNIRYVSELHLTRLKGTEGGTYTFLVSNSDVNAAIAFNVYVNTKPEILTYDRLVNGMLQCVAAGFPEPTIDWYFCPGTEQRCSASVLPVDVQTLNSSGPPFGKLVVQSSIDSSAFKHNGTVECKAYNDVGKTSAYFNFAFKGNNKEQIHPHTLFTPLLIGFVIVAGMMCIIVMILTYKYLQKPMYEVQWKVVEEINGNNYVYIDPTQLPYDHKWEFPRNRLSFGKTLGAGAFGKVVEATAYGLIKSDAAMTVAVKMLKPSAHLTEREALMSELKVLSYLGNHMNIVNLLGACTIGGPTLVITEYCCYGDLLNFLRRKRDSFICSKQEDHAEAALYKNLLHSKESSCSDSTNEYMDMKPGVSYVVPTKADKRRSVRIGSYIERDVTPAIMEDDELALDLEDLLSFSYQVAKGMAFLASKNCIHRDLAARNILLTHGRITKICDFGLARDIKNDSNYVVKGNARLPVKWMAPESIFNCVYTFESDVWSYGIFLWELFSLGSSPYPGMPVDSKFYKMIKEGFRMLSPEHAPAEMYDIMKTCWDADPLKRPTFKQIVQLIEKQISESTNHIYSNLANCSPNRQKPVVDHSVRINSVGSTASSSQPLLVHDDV
Chain of Tyrosine-protein kinase Lck (P06239 whole entry): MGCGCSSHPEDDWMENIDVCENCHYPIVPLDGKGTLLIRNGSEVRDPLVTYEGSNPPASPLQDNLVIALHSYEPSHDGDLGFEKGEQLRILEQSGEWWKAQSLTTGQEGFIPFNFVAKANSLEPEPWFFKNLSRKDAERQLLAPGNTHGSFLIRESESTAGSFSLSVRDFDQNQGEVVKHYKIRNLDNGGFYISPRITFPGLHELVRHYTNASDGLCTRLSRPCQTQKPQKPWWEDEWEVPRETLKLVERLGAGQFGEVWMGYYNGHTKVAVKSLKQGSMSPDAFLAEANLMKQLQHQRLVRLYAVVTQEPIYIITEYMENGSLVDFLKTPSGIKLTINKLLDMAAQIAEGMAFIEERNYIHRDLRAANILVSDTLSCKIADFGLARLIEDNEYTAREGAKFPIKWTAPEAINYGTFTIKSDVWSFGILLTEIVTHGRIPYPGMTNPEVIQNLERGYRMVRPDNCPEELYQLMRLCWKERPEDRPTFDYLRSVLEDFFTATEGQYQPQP

`CNC(=O)c1cccc2cc(Oc3ccnc4cc(OCC5(N)CC5)c(OC)cc34)ccc12`: the IC50 (commonly the midpoint of a concentration-inhibition curve) came to 10 nM in [1]; 25 nM in assay [2]; 7 nM in assay [3]; 17.5 nM in [4]; 82.5 nM in assay [5].

In assay [1], `CNC(=O)c1cc(COc2nnc(Nc3ccc(Cl)cc3)c3ccoc23)ccn1` [TELATINIB] gave an IC50 of 4 nM.

With `COc1cc2ncnc(Sc3nnc(C)s3)c2cc1OC`, the figures for the inhibition in vivo at 100 mg/kg with SW-620 and in the assay on HepG2 were 72% and 63%, respectively. Besides, the IC50 in [2] was determined as 32 nM. Further, in the assay listed under Danio rerio, the “inhibition (INH)” value is on record as 80%. The inhibition (usually the drop in the measured response relative to a control, in per cent) at 10 µM in the assay on HUVEC was 98%.

For the molecule `COc1cc2c(Oc3ccc(Nc4ccc(C(C)(C)C)cc4)cc3)ccnc2cc1OCCNCCO`, the 50% inhibitory concentration (IC50) in assay [2], in [6], in assay [7] and in [5] was 69 nM throughout.

Regarding `O=C(Nc1ccc(OC(F)(F)F)cc1)c1sccc1NCc1ccnc2ccccc12` [OSI-930], the IC50 is 41 nM in assay [8], 22 nM in assay [9] and 10 nM in assay [7].

Turning to `COc1cc2nccc(Oc3ccc(NC(=O)NC4CC4)c(Cl)c3)c2cc1C(N)=O` [LENVATINIB], in assay [1], it took 5.2 nM to reach half-maximal inhibition (IC50). This counts as single-digit nanomolar.

In the case of `CCN1CCN(Cc2ccc(-c3cc4c(N[C@H](C)c5ccccc5)ncnc4[nH]3)cc2)CC1` [AEE-788], the IC50 in assay [2] amounted to 77 nM; in [3] it was 59 nM.

In the case of `NC(=O)c1c(OCc2c(F)cc(Br)cc2F)nsc1NC(=O)NCCCCN1CCCC1` [OSI-632], the TGI (commonly how far tumour growth fell short of that in controls) in the assay on Mus musculus came out at 85%. The same molecule came in with an IC50 in [10] of 9 nM.

The record behind these values is ChEMBL document CHEMBL2177017, “Vascular endothelial growth factor (VEGF) receptors: drugs and new inhibitors” (J Med Chem, 2012).
